Results from patent US8729082B2, “Substituted imidazoquinoxalines” (Bayer Intellectual Property GmbH, priority 2009, dated 2014).

These compounds were tested against T1, human kinase Mps-1 (Homo sapiens, UniProt P33981) (assay: Mps-1 kinase assay (HTRF)). Settings: lowATP; mean; read-out: Mps1 lowATP mean IC50.
T1 construct: N-terminally GST-tagged human full length recombinant Mps-1 kinase; purchased Invitrogen, Karslruhe, Germany PV4071
T1 sequence (P33981 1-857): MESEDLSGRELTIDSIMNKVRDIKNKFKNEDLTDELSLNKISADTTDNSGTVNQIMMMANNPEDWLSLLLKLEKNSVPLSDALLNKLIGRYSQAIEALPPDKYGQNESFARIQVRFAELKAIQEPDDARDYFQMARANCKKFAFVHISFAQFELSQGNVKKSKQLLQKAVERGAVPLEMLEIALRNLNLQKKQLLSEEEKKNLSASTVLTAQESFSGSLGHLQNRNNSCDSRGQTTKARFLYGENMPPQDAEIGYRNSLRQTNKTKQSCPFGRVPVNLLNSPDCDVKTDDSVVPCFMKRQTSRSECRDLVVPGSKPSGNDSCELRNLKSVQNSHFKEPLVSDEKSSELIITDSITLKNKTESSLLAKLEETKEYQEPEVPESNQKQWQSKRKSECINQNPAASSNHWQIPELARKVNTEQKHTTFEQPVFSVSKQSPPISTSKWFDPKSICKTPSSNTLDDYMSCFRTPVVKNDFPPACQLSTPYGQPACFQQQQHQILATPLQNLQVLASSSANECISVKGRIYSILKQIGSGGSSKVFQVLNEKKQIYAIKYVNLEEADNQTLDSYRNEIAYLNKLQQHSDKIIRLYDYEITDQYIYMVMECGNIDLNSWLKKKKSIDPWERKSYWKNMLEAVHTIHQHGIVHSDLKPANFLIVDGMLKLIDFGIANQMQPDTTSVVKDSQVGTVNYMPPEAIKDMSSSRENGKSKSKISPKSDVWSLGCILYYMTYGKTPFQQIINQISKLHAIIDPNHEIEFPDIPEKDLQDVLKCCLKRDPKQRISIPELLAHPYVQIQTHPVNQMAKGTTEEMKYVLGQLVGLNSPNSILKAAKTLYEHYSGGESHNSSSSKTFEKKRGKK
Assay type: biochemical
Outline: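 HTRF readout: EDTA-stopped reactions incubated 1 h with europium anti-phospho(Ser/Thr) antibody and streptavidin-XLent, emission ratio 665/620 nm after 350 nm excitation. Kinase step: compound pre-bound 15 min to ~1 nM GST-Mps-1, then 60 min at 22 °C with ATP and biotin-peptide substrate; inhibition scaled between no-inhibitor (0%) and no-enzyme (100%) controls.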

| SMILES | IC50 [nM] |
| --- | --- |
| CC(C)CCNc1nc2ccc(F)cc2n2c(-c3ccc(C(=O)NC4CC4)cc3)cnc12 [Example 2-43, N-cyclopropyl-4-{8-fluoro-4-[(3-methylbutyl)amino]imidazo[1,2-a]quinoxalin-1-yl}benzamide] | 35.9 |
| CCNc1nc2cc(C)c(C)cc2n2c(-c3ccc(C(=O)NC4CC4)cc3)cnc12 [Example 2-147, N-cyclopropyl-4-[4-(ethylamino)-7,8-dimethylimidazo[1,2-a]quinoxalin-1-yl]benzamide] | 4.5 |
| O=C(NC1CC1)c1ccc(-c2cnc3c(NCc4cccs4)nc4ccccc4n23)cc1 [Example 2-18, N-cyclopropyl-4-{4-[(thiophen-2-ylmethyl)amino]imidazo[1,2-a]quinoxalin-1-yl}benzamide] | 46.6 |
| CNC(=O)Nc1ccc(-c2cnc3c(NCC(O)CO)nc4ccc(F)cc4n23)cc1 (centres unmarked) [Example 2-74, 1-(4-{4-[(2,3-dihydroxypropyl)amino]-8-fluoroimidazo[1,2-a]quinoxalin-1-yl}phenyl)-3-methylurea] | 10100 |
| O=C(NC1CC1)c1ccc(-c2cnc3c(NCc4ccccn4)nc4cc(F)c(F)cc4n23)cc1Cl [Example 2-134, 2-chloro-N-cyclopropyl-4-{7,8-difluoro-4-[(pyridin-2-ylmethyl)amino]imidazo[1,2-a]quinoxalin-1-yl}benzamide] | 6700 |
| CNC(=O)Nc1ccc(-c2cnc3c(NCc4cccnc4)nc4ccc(F)cc4n23)cc1 [Example 2-68, 1-(4-{8-fluoro-4-[(pyridin-3-ylmethyl)amino]imidazo[1,2-a]quinoxalin-1-yl}phenyl)-3-methylurea] | 2970 |
| CC(=O)NCCNc1nc2cc(F)c(F)cc2n2c(-c3ccc(C(=O)NC4CC4)cc3)cnc12 [Example 2-102, 4-(4-{[2-(acetylamino)ethyl]amino}-7,8-difluoroimidazo[1,2-a]quinoxalin-1-yl)-N-cyclopropylbenzamide] | 584 |
| O=C(NC1CC1)c1ccc(-c2cnc3c(NCc4ccc(F)cc4)nc4cc(F)c(F)cc4n23)cc1Cl [Example 2-128, 2-chloro-N-cyclopropyl-4-{7,8-difluoro-4-[(4-fluorobenzyl)amino]imidazo[1,2-a]quinoxalin-1-yl}benzamide] | 17300 |
| O=C(NC1CC1)c1ccc(-c2cnc3c(NCCN4CCNC4=O)nc4ccccc4n23)cc1 [Example 2-33, N-cyclopropyl-4-(4-{[2-(2-oxoimidazolidin-1-yl)ethyl]amino}imidazo[1,2-a]quinoxalin-1-yl)benzamide] | 1150 |
| COCCCNc1nc2ccc(F)cc2n2c(-c3ccc(C(=O)NC4CC4)c(Cl)c3)cnc12 [Example 2-83, 2-chloro-N-cyclopropyl-4-{8-fluoro-4-[(3-methoxypropyl)amino]imidazo[1,2-a]quinoxalin-1-yl}benzamide] | 6700 |
| O=C(NC1CC1)c1ccc(-c2cnc3c(NCc4ccc(F)cc4)nc4ccccc4n23)cc1 [Example 2-15, N-cyclopropyl-4-{4-[(4-fluorobenzyl)amino]imidazo[1,2-a]quinoxalin-1-yl}benzamide] | 56.3 |
| COc1ccc(-c2cnc3c(NCC(C)C)nc4ccccc4n23)c(C)c1 [Example 1-30, 1-(4-methoxy-2-methylphenyl)-N-(2-methylpropyl)imidazo[1,2-a]quinoxalin-4-amine] | 15300 |
| O=C(NC1CC1)c1ccc(-c2cnc3c(NCc4cccc(F)c4)nc4ccccc4n23)cc1 [Example 2-5, N-cyclopropyl-4-{4-[(3-fluorobenzyl)amino]imidazo[1,2-a]quinoxalin-1-yl}benzamide] | 90 |
| CNC(=O)Nc1ccc(-c2cnc3c(NCC(F)(F)F)nc4ccc(F)cc4n23)cc1 [Example 2-64, 1-(4-{8-fluoro-4-[(2,2,2-trifluoroethyl)amino]imidazo[1,2-a]quinoxalin-1-yl}phenyl)-3-methylurea] | 6700 |
| CCCNc1nc2ccc(F)cc2n2c(-c3ccc(C(=O)NC4CC4)cc3)cnc12 [Example 2-40, N-cyclopropyl-4-[8-fluoro-4-(propylamino)imidazo[1,2-a]quinoxalin-1-yl]benzamide] | 28.5 |
| CCCCNc1nc2cc(C)c(C)cc2n2c(-c3ccc(C(=O)NC4CC4)cc3)cnc12 [Example 2-149, 4-[4-(butylamino)-7,8-dimethylimidazo[1,2-a]quinoxalin-1-yl]-N-cyclopropylbenzamide] | 2.86 |

Second part, the compound after the results:

| IC50 [nM] | SMILES |
| --- | --- |
| 361 | CC(C)CNc1nc2ccccc2n2c(-c3ccc(C(=O)Nc4cccc(NC(=O)c5cccnc5)c4)cc3)cnc12 [Example 3-28, N-{3-[(4-{4-[(2-methylpropyl)amino]imidazo[1,2-a]quinoxalin-1-yl}benzoyl)amino]phenyl}pyridine-3-carboxamide] |
| 26.7 | CCCCNc1nc2cc(C)c(C)cc2n2c(-c3ccc(C(=O)NC4CC4)c(Cl)c3)cnc12 [Example 2-187, 4-[4-(butylamino)-7,8-dimethylimidazo[1,2-a]quinoxalin-1-yl]-2-chloro-N-cyclopropylbenzamide] |
| 82.7 | Cc1cc2nc(NCCCn3ccnc3)c3ncc(-c4ccc(C(=O)NC5CC5)c(Cl)c4)n3c2cc1C [Example 2-189, 2-chloro-N-cyclopropyl-4-(4-{[3-(1H-imidazol-1-yl)propyl]amino}-7,8-dimethylimidazo[1,2-a]quinoxalin-1-yl)benzamide] |
| 33 | Cc1cc2nc(NCCCCO)c3ncc(-c4ccc(C(=O)NC5CC5)c(Cl)c4)n3c2cc1C [Example 2-184, 2-chloro-N-cyclopropyl-4-{4-[(4-hydroxybutyl)amino]-7,8-dimethylimidazo[1,2-a]quinoxalin-1-yl}benzamide] |
| 218 | Cc1cc2nc(NCCC(N)=O)c3ncc(-c4ccc(C(=O)NC5CC5)c(Cl)c4)n3c2cc1C [Example 2-195, 4-{4-[(3-amino-3-oxopropyl)amino]-7,8-dimethylimidazo[1,2-a]quinoxalin-1-yl}-2-chloro-N-cyclopropylbenzamide] |
| 15.6 | Cn1nccc1CNc1nc2cc(C#N)ccc2n2c(-c3ccc(C(=O)NC4CC4)cc3)cnc12 [Example 2-220, 4-(7-cyano-4-{[(1-methyl-1H-pyrazol-5-yl)methyl]amino}imidazo[1,2-a]quinoxalin-1-yl)-N-cyclopropylbenzamide] |
| 852 | Cn1nccc1CNc1nc2cc(C#N)ccc2n2c(-c3ccc(C(=O)NC4CC4)c(Cl)c3)cnc12 [Example 2-252, 2-chloro-4-(7-cyano-4-{[(1-methyl-1H-pyrazol-5-yl)methyl]amino}imidazo[1,2-a]quinoxalin-1-yl)-N-cyclopropylbenzamide] |
| 1120 | N#Cc1ccc2c(c1)nc(NCc1cccnc1)c1ncc(-c3ccc(C(=O)NC4CC4)c(Cl)c3)n12 [Example 2-245, 2-chloro-4-{7-cyano-4-[(pyridin-3-ylmethyl)amino]imidazo[1,2-a]quinoxalin-1-yl}-N-cyclopropylbenzamide] |
| 251 | Cc1cc2nc(NCc3ccccn3)c3ncc(-c4ccc(C(=O)NC5CC5)c(Cl)c4)n3c2cc1C [Example 2-191, 2-chloro-N-cyclopropyl-4-{7,8-dimethyl-4-[(pyridin-2-ylmethyl)amino]imidazo[1,2-a]quinoxalin-1-yl}benzamide] |
| 19.5 | Cc1cc2nc(NCc3ccccn3)c3ncc(-c4ccc(C(=O)NC5CC5)cc4)n3c2cc1C [Example 2-151, N-cyclopropyl-4-{7,8-dimethyl-4-[(pyridin-2-ylmethyl)amino]imidazo[1,2-a]quinoxalin-1-yl}benzamide] |
